From paper PMC6389962 (Nature Communications, 2019) come the findings set out here.

Where two headings read alike, the source gives them in different places. Starred links: 1 amine or outer side, 2 acyl side, 3 side chain; linkers in the order of their positions; H or OH if unused. Positions of bridges follow the written chain, without caps; N, C: chain ends. Residues, ends and D or L forms follow the SMILES beside them. Chains are numbered I, II in the order given. X2 = C[C@@H](CNC(=O)N[C@@H](C)CNC(=O)N[C@@H](C)CNC(=O)N[C@@H](C)CNC(=O)[*:2])NC(=O)NC[C@H](CCC(=O)O)NC(=O)NC[C@H](Cc1ccc(O)cc1)N[*:1]; X1 = C[C@@H](CNC(=O)N[C@@H](C)CNC(=O)[*:2])NC(=O)NC[C@H](C)N[*:1]

One data set in a line: in vitro. The following applies: mouse, plasma. As for the experimental part:
The oligomer was then diluted 1/50 with a solution of plasma/PBS pH 7.4 (1:1) to afford a final concentration of 5 µM and incubated at 37 °C (4 µL of the stock solution was diluted with 196 µL of plasma/PBS, pH 7.4, 1:1). Each compound was also incubated in the absence of plasma (196 µL of H2O/PBS, pH 7.4, 1:1). At the indicated time (20 min and 60 min) an aliquot of 70 µL was removed from each experimental reaction and pipetting into 175 µL of acetonitrile at 0 °C to quench the reaction (t = 0 min was determined using the reaction without plasma). The samples were frozen at –80 °C before analysis. The frozen samples were defrosted, stirred with a vortex 5 min and finally centrifuged 5 min at 16 °C (1500 × g). The supernatant was analysed by LC-MS. The time course of oligomer degradation was determined by integrating the area of the peak in the extracted ion chromatogram.
Supplementar y Figur e 2 : Mouse plasma degradation assay. […] Data are
mean ± SEM, n = 4. Source data are provided as a Source Data file (T able 2 tab).
Supplementar y Figur e 3.
Data are mean ± SEM, n = 3.
Source data are provided as a Source Data file […]

In data set [1] the target is T1, mouse GLP-1 receptor (Mus musculus, UniProt O35659).
T1 sequence (O35659 22-463): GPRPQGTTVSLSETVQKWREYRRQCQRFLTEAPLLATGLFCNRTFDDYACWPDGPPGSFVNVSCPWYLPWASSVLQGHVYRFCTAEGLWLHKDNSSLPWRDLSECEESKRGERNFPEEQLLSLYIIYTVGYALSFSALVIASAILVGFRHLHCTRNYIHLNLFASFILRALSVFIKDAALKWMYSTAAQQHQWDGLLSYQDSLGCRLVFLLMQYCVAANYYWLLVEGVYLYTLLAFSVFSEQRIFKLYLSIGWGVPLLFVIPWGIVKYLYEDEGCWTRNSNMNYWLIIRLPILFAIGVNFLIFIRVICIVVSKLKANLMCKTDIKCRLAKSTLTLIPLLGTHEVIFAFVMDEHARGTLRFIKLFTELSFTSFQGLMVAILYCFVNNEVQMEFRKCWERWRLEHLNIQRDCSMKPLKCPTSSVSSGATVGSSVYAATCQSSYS
Nature of the data set: cell-based.

The test system of a further data set is normal mice (C57BL/6J). Kind of data set: Blood glucose study in normal fed mice. In kind it is in vivo, mouse. Further details: key to In vivo activity (indicator): + active; +++: + + + more active. The following applies: for In vivo activity (indicator): mice, 50 nmol kg−1 i.v.; for time after dosing for which the blood glucose decrease is preserved / effect on blood glucose concentration: normal fed C57BL/6J mice, n = 3, 5 μg per mouse (50 nmol kg−1) i.v.; for effect on blood glucose concentration: monitored 6 h. As for the experimental part: In the first study, we evaluated the effect of the analogues on the blood glucose concentration of normal mice (Fig. 3). The fed mice were treated with the analogues and their blood glucose concentration was monitored before and after dosing for 6 h. […] Indeed, a decrease of blood glucose concentration is observed after 30 min and the effect is preserved for 4 h after dosing.
Fig. 3 Blood glucose study in mice. a–c Blood glucose concentration in normal mice (C57BL/6J, male, 20–25 g, n = 3) before and after dosing: 5 μg per mouse (50 nmol kg^−1) i.v. Formulation: 20 μg mL^−1 in PBS 1×. The dosing was done at T0. Data are mean ± SEM. […] Source data are provided as a Source Data file
After the acclimation period (at least 5 days), mice (male C57BL/6J mice (Charles River laboratories) 8 weeks old, 20–25 g) were randomized into 10 groups (n = 3 per group) according to their body weight. They were acutely treated via i.v. route at 10 am (5 µg per mouse). Blood glucose was measured before dosing and at 30 min, 1, 2, 4, 6 h after dosing in fed conditions.

The test system of data set [2] is fasted normal mice (C57BL/6J). Kind of data set: Intraperitoneal glucose tolerance test (IPGTT) in fasted normal mice. The following applies: for AUC: IPGTT 5 min (Fig 4a), blood glucose AUC 0-120 min. In kind it is in vivo, mouse. On the procedure: In a second study, an IPGTT was performed 30 min after i.v. injections of 1, 14 and the vehicle (Fig. 4b). […] A further IPGTT study was done with a glucose challenge after 2 h of the dosing to investigate the prolonged activity of hybrids 14, 22 and 23 (Fig. 4c).
Fig. 4 IPGTT studies in mice. a–d Intraperitoneal glucose tolerance test (IPGTT) at different time after dosing in fasted normal mice (C57BL/6J, male, 20–25 g). Dosage: 200 μg kg^−1 (50 nmol kg^−1) i.v. Formulation: 20 μg mL^−1 in PBS 1×. IPGTT: glucose 2 g kg^−1 i.p. at T0. a IPGTT after 5 min (n = 4). b IPGTT after 30 min (n = 6). c IPGTT after 2 h (n = 6). d IPGTT after 4 h (n = 3). Area under the curve (AUC) of the corresponding IPGTT curve. Data are mean ± SEM. […] Source data are provided as a Source Data file
After the acclimation period (at least 5 days), mice (male C57BL/6J mice (Charles River laboratories) 6 weeks old, 20–25 g) were randomized into groups according to their body weight. The mice were fasted for 6 h prior being acutely treated via i.v. route (5 µg per mouse i.v. (200 μg kg^−1, 50 nmol kg^−1)) formulated at 20 µg mL^−1 in PBS 1×. The IPGTTs were performed (glucose 2 g kg^−1 i.p.) 5 min, 30 min, 2 h or 4 h after dosing and blood glucose was measured at different time points after the glucose challenge.

The target in data set [3] is T1, mouse GLP-1 receptor. The following applies: for Potency (%), percentage of potency compare to GLP-1-G^2: cAMP production, from EC50. (Changes in cAMP serve as a functional read-out for many G protein-coupled receptors.)
The mark [4] stands for this setting: read-out: Top (best-fit value), variable slope four-parameter fit, unconstrained, 14: experiment 1.
Where [5] appears, read: fasted C57BL/6J mice, 200 μg kg−1 (50 nmol kg−1) i.v., glucose 2 g kg−1 i.p., n = 6.

As a reminder, the half-life is the time in which the quantity being followed falls by half. What is called fraction remaining is the share of the starting amount still present when the sample was taken. What is called EC50 is the concentration that produces a half-maximal response.

With `CC[C@H](C)[C@H](NC(=O)[C@H](Cc1ccccc1)NC(=O)NC[C@H](C)NC(=O)NC[C@H](C)NC(=O)NC[C@H](C)NC(=O)[C@H](CCC(N)=O)NC(=O)CNC(=O)[C@H](CCC(=O)O)NC(=O)[C@H](CC(C)C)NC(=O)[C@H](Cc1ccc(O)cc1)NC(=O)[C@H](CO)NC(=O)[C@H](CO)NC(=O)[C@@H](NC(=O)[C@H](CC(=O)O)NC(=O)[C@H](CO)NC(=O)[C@@H](NC(=O)[C@H](Cc1ccccc1)NC(=O)[C@@H](NC(=O)CNC(=O)[C@H](CCC(=O)O)NC(=O)CNC(=O)[C@@H](N)Cc1c[nH]cn1)[C@@H](C)O)[C@@H](C)O)C(C)C)C(=O)N[C@@H](C)C(=O)N[C@@H](Cc1c[nH]c2ccccc12)C(=O)N[C@@H](CC(C)C)C(=O)N[C@H](C(=O)N[C@@H](CCCCN)C(=O)NCC(=O)N[C@@H](CCCNC(=N)N)C(=O)NCC(N)=O)C(C)C` [compound 14, GG2[A^uA^uA^u]^18-21] (I: H-HGEGTFTSDVSSYLEGQ / II: FIAWLVKGRG-NH2; linker I:C-II:N via X1), in “in vitro” (pH 7.4), the half-life was 38 min. In the data set “in vitro” (pH 7.4, % remaining analogue), the amount remaining at 20 min, 5 µM came to 66.9%. The share remaining at 1 h, 5 µM in “in vitro” (pH 7.4, % remaining analogue) came to 30.5%. Further, the EC50 at mouse GLP-1 receptor [1] was 4.1 nM. For the same molecule, the Emax at mouse GLP-1 receptor [1] (read-out: Top (best-fit value), fit with BOTTOM = 0%, 14: experiment 1) was 116%; at mouse GLP-1 receptor [1] (read-out: Top (best-fit value), fit with BOTTOM = 0%, 14 experiment 2), 117%; on mouse GLP-1 receptor [1] (read-out: Top (best-fit value), fit with BOTTOM = 0%, 14 experiment 3), 100%; on mouse GLP-1 receptor [1] (read-out: Top (best-fit value), fit with BOTTOM = 0%, 14 experiment 4), 116%; at mouse GLP-1 receptor [1] (setting [4]), 103%; at mouse GLP-1 receptor [1] (read-out: Top (best-fit value), variable slope four-parameter fit, unconstrained, 14 experiment 2), 116%. In addition, the Emax at mouse GLP-1 receptor [1] (read-out: Top (best-fit value), variable slope four-parameter fit, unconstrained, 14 experiment 3) came out at 99.8%; at mouse GLP-1 receptor [1] (read-out: Top (best-fit value), variable slope four-parameter fit, unconstrained, 14 experiment 4), 119%. Also, the “In vivo activity (indicator)” value in the data set with normal mice (C57BL/6J) is reported as “+++”. In addition, the “time after dosing for which the blood glucose decrease is preserved” value in the data set on normal mice (C57BL/6J) stood at 4 h. Further, the “effect on blood glucose concentration” value in the data set with normal mice (C57BL/6J) was “showed an improved efficacy compare to the native peptide 1”. Also, the AUC in data set [2] (mean of n = 4, 2018-03-08) was found to be 16833 mg·min/dL; in data set [2] (single animal, 1st of group), 18150 mg·min/dL; in data set [2] (single animal, 2nd of group), 13233 mg·min/dL; in data set [2] (single animal, 3rd of group), 18503 mg·min/dL; in data set [2] (single animal, 4th of group) it was 17445 mg·min/dL. The “activity in IPGTT 4 h after dosing” value in data set [2] (fasted C57BL/6J mice, 200 μg kg−1 (50 nmol kg−1) i.v., glucose 2 g kg−1 i.p., n = 3) is “still active after 6 h of the treatment”. For the same molecule, the “activity in IPGTT 5 min after dosing” value in data set [2] (fasted C57BL/6J mice, 200 μg kg−1 (50 nmol kg−1) i.v., glucose 2 g kg−1 i.p., n = 4) is listed as “both analogues were active”. The “activity in IPGTT 30 min after dosing” value in data set [2] (setting [5]) is given as “demonstrated full activity”. Further, the “activity in IPGTT 2 h after dosing” value in data set [2] (setting [5]) is “good control of the blood glucose concentration during the IPGTT”. For the same molecule, the “Potency (%), percentage of potency compare to GLP-1-G^2” value on mouse GLP-1 receptor [3] was 6%.

For the molecule `CC[C@H](C)[C@H](NC(=O)[C@H](Cc1ccccc1)NC(=O)NC[C@H](C)NC(=O)NC[C@H](C)NC(=O)NC[C@H](C)NC(=O)NC[C@H](C)NC(=O)NC[C@H](CCC(=O)O)NC(=O)NC[C@H](Cc1ccc(O)cc1)NC(=O)[C@H](Cc1ccc(O)cc1)NC(=O)[C@H](CO)NC(=O)[C@H](CO)NC(=O)[C@@H](NC(=O)[C@H](CC(=O)O)NC(=O)[C@H](CO)NC(=O)[C@@H](NC(=O)[C@H](Cc1ccccc1)NC(=O)[C@@H](NC(=O)CNC(=O)[C@H](CCC(=O)O)NC(=O)CNC(=O)[C@@H](N)Cc1c[nH]cn1)[C@@H](C)O)[C@@H](C)O)C(C)C)C(=O)N[C@@H](C)C(=O)N[C@@H](Cc1c[nH]c2ccccc12)C(=O)N[C@@H](CC(C)C)C(=O)N[C@H](C(=O)N[C@@H](CCCCN)C(=O)NCC(=O)N[C@@H](CCCNC(=N)N)C(=O)NCC(N)=O)C(C)C` [compound 23, GG2[Y^uE^uA^uA^uA^uA^u]^14-21] (I: H-HGEGTFTSDVSSY / II: FIAWLVKGRG-NH2; linker I:C-II:N via X2), the half-life at 5 µM in “in vitro” (pH 7.4) was determined as 39 min. The molecule further displayed a fraction remaining at 1 h, 5 µM in the data set “in vitro” (pH 7.4, % remaining analogue) of 24.8%. On mouse GLP-1 receptor [1], this molecule showed an EC50 of 3.4 nM. The Emax on mouse GLP-1 receptor [1] (setting [4]) worked out at 100%. For the same molecule, in the data set with normal mice (C57BL/6J), the “In vivo activity (indicator)” value is “+++”, the “time after dosing for which the blood glucose decrease is preserved” value is recorded as 4 h and the “effect on blood glucose concentration” value is recorded as “showed an improved efficacy compare to the native peptide 1”. Further, the “activity in IPGTT 2 h after dosing” value in data set [2] (setting [5]) is reported as “good control of the blood glucose concentration during the IPGTT”. Further, on mouse GLP-1 receptor [3], the “LogEC50 (best-fit value)” value is recorded as -8.466 and the “Potency (%), percentage of potency compare to GLP-1-G^2” value amounted to 7%.
